{"source": "BindingDB's records for doi:10.1021/acs.jmedchem.8b00605", "about": "(Leiden University, 2018)", "target": "T1, C-C chemokine receptor type 1 (Homo sapiens, UniProt P32246)", "T1 sequence (P32246 whole entry)": "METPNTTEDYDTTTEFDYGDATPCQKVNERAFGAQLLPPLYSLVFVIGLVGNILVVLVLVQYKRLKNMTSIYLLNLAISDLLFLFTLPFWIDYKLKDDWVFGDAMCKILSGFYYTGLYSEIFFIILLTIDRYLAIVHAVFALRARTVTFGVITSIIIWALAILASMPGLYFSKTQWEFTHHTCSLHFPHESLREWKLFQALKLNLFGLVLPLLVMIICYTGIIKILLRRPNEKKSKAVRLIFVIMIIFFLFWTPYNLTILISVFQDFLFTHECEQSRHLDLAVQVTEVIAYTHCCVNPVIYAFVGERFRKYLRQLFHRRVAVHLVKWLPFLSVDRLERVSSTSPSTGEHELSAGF", "test": "Displacement of [3H]-CCR2-RA-[R] from human TEV protease site linked CCR1 expressed in human U20S cell membranes co-expressing Gal4-VP16 transcription factor after 120 mins by scintillation spectrometry", "data": [{"smiles": "CC(=O)C1=C(O)C(=O)N(c2ccc(Br)cc2F)C1C1CCCCC1", "note": "(stereo unspecified)", "values": [{"measurement": "Ki", "value": 0.01, "unit": "µM"}]}]}
